Laboratory results as given in ChEMBL document CHEMBL2406944, “Development of stapled short helical peptides capable of inhibiting vitamin D receptor (VDR)-coactivator interactions” (Bioorg Med Chem Lett, 2013).
Starred links: 1 amine or outer side, 2 acyl side, 3 side chain; linkers in the order of their positions; H or OH if unused. Positions of bridges follow the written chain, without caps; N, C: chain ends. Non-standard residues stand in square brackets, D forms with d. Residues, ends and D or L forms follow the SMILES beside them. hSer = N[C@@H](CCO)C(=O)O; X1 = C(CC[*:2])C[*:1]; Aib = CC(C)(N)C(=O)O

Biological target: T1, Vitamin D3 receptor (Homo sapiens, UniProt P11473)
T1 sequence (P11473 whole entry): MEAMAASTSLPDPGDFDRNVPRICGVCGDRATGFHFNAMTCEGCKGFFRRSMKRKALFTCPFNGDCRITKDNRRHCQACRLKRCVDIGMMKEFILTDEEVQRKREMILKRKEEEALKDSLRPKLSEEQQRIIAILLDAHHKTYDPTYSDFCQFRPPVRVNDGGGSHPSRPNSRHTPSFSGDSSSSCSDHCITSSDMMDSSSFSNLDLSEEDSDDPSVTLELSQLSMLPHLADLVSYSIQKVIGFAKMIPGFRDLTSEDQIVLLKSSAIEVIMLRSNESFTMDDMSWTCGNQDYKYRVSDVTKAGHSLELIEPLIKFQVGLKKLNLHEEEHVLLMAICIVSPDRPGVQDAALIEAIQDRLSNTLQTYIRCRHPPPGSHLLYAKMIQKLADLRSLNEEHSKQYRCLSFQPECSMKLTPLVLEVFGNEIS
Assay: Inhibition of human VDR-coactivator interaction

SMILES	IC50
CC(C)C[C@@H]1NC(=O)[C@H](CC(C)C)NC(=O)C(C)(C)NC(=O)[C@H](NC(=O)[C@H](CC(C)C)NC(=O)[C@@H](N)CC(C)C)COCCCCOC[C@@H](C(=O)O)NC1=O	610 µM
CC(C)C[C@@H]1NC(=O)[C@H](CC(C)C)NC(=O)C(C)(C)NC(=O)[C@H](NC(=O)[C@H](CC(C)C)NC(=O)[C@@H](N)CC(C)C)COCCCCOC[C@H](C(=O)O)NC1=O	600 µM
CC(C)C[C@@H]1NC(=O)[C@H](CC(C)C)NC(=O)C(C)(C)NC(=O)[C@@H](NC(=O)[C@H](CC(C)C)NC(=O)[C@@H](N)CC(C)C)COCCCCOC[C@H](C(=O)O)NC1=O	430 µM
CC(C)C[C@@H]1NC(=O)[C@H](CC(C)C)NC(=O)C(C)(C)NC(=O)[C@@H](NC(=O)[C@H](CC(C)C)NC(=O)[C@@H](N)CC(C)C)COCCCCOC[C@@H](C(=O)O)NC1=O	610 µM
CC(C)C[C@@H]1NC(=O)[C@H](CC(C)C)NC(=O)C(C)(C)NC(=O)[C@@H](NC(=O)[C@H](CC(C)C)NC(=O)[C@@H](N)CC(C)C)CCOCCCCOC[C@@H](C(=O)O)NC1=O (H-LL[hSer][Aib]LLS-OH; linker 3-7 via X1)	520 µM
CC(C)C[C@@H]1NC(=O)[C@H](CC(C)C)NC(=O)C(C)(C)NC(=O)[C@@H](NC(=O)[C@H](CC(C)C)NC(=O)[C@@H](N)CC(C)C)CCOCCCCOCC[C@@H](C(=O)O)NC1=O (H-LL[hSer][Aib]LL[hSer]-OH; linker 3-7 via X1)	220 µM
CC(C)C[C@@H]1NC(=O)[C@H](CC(C)C)NC(=O)C(C)(C)NC(=O)[C@@H](NC(=O)[C@H](CC(C)C)NC(=O)[C@@H](N)CC(C)C)CCOCC(O)C(O)COCC[C@@H](C(=O)O)NC1=O (mixture of isomers)	3.2 µM
